According to US20250367229A1, “Treatment of Immune-Related Disorders, Kidney Disorders, Liver Disorders, Hemolytic Disorders, and Oxidative Stress-Associated Disorders Using NRH, NARH and Reduced Derivatives Thereof” (MitoPower LLC, priority 2021, published 2025):

What was measured:
[1] = test system: peripheral blood mononuclear cells (PBMCs); test: Extracellular acidification rate (ECAR, a measure of glycolysis) in activated PBMCs, Seahorse XF; format: cell-based, human; settings: 250 μM, 4 hr, PBMCs stimulated with anti-CD3 and anti-CD28 antibodies
Method: PBMCs (1.5×10^6) obtained from a healthy human adult donor were unstimulated or stimulated with anti-CD3 and anti-CD28 antibodies (1 μg/mL each) to induce T-cell activation, in the absence or presence of 250 μM NRH for 4 hr. The cells were then washed and plated on poly-D-lysine-coated Seahorse XF microplates at a density of 3×10^5 cells per well (5 replicates). The plates were centrifuged briefly and incubated at 37° C. in a non-CO2 incubator for 30 min to settle the cells in the bottom of the plate. Extracellular acidification rate (ECAR, a measure of glycolysis) and oxygen consumption rate (OCR, a measure of oxidative phosphorylation) were determined using a Seahorse XF cell mito stress test kit and a Seahorse Xfe96 analyzer (Agilent Technologies, Santa Clara, California) under basal condition or in response to 1.0 μM oligomycin (an inhibitor of ATP synthase), 1.5 μM carbonyl cyanide-p-trifluoromethoxyphenylhydrazone (FCCP, a mitochondrial uncoupler), 0.5 μM rotenone (an inhibitor of electron transport at complex I) and antimycin A (an inhibitor of electron transport at cytochrome c reductase). PBMCs include monocytes and lymphocytes including T cells, B cells and natural killer cells.

[2] = test system: red blood cells (RBCs); test: H2O2-induced hemolysis in vitro; format: cell-based; settings: 2000, 200 and 20 μM, pre-incubation 1 hr at 37° C., then H2O2 4 hr
Method: Individual test compounds were dissolved in 0.9% normal saline to prepare 0.3 M stock solutions. A 0.3 M stock solution was added to a 20% suspension of washed red blood cells (RBCs) in saline to obtain final concentrations of 2000 μM, 200 μM and 20 μM of the compound. The RBC suspensions were incubated with the test compound at 37° C. for 1 hr prior to testing. A 2.5% H2O2 solution was prepared fresh by dilution with normal saline and chilled at 2-8° C. before use. Each RBC suspension containing the test compound was split into tubes A and B. 250 μL of the chilled H2O2 solution was added to 250 μL of RBC suspension in each tube while maintaining the tubes in an ice bath. The tubes were incubated at 37° C. for 4 hr, and then 4.5 mL of saline or de-ionized water was added to tube A or tube B, respectively. After the tubes were incubated for 10 min, the mixture in the tubes was centrifuged at 1800 g, and then absorbance was measured in the supernatant at 540 nm. The percentage of hemolysis was calculated as: […]

[3] = test system: RBC hemoglobin; test: H2O2-induced oxidative changes of RBC hemoglobin in vitro (spectral scans); format: cell-based, human
Method: A 4 M stock solution of sodium azide was prepared. One mL of the 4 M stock azide solution was diluted with 9 mL of phosphate-buffered saline (PBS, pH 7.4) to obtain a 0.4 M stock solution, which was further diluted with PBS to obtain a 0.01 M working solution of sodium azide. Eight mL of whole blood was collected in buffered acid citrate dextrose tubes from a healthy human donor. PBS was added to 500 μL of whole blood. The samples were centrifuged, and then the supernatant from each tube was discarded to obtain a red blood cell (RBC) pellet. Ten μL of 0.01 M sodium azide working solution was added to 20 μL of RBC suspension. Twenty μL of hydrogen peroxide (H2O2) diluted in PBS was added to the RBC suspension to obtain final concentrations of H2O2 ranging from 0.01 mM to 100 mM. The samples were incubated at 37° C. for 1.5 hr. 950 μL of de-ionized water was added to the samples, which were then incubated for 10 min to lyse the RBCs and obtain hemoglobin upon centrifugation at 1,500 g. Spectral scans of the lysed samples between 200 nm and 1100 nm were obtained in 2 nm increments, using a Systronics® dual-beam UV-spectrophotometer and de-ionized water as a blank. Samples incubated with PBS at 37° C. for 1-1.5 hr were used as controls to establish the oxidative effects of H2O2 on RBC hemoglobin. Absorbance at 576 nm is a measure of hemoglobin concentration in a sample, and oxidation of hemoglobin to methemoglobin results in a drop in absorbance at 576 nm and an increase in absorbance at 630 nm. Fantao et al., Anal. Biochem., 521:11-19, (2017). Stock solutions of NRH (29.6 mM) and NR (18.3 mM) were prepared in 0.9% normal saline. Appropriate quantities of the stock NRH or NR solution and PBS were added to 500 μL of whole blood to obtain final concentrations of NRH or NR ranging from 1 μM to 1000 μM. The whole blood samples with NRH or NR were mixed gently and incubated at 37° C. for 1-1.5 hr. The samples were centrifuged, and then the supernatant was discarded to obtain an RBC pellet for each sample.

[4] = test system: HEK293 cells; test: NADH/NAD+ ratio in H2O2-exposed HEK293 cells (NAD/NADH-Glo); format: cell-based; settings: NRH at 100 and 1000 μM, NR at all tested concentrations (0.01-1000 μM)
Method: HEK293 cells were trypsinized and plated at a density of 60,000 cells per well. The cells were then treated with H2O2 (600 μM prepared with Dulbecco's Modified Eagle Medium [DMEM]) for 30 min. The media was then replaced with serum media (DMEM supplemented with 10% fetal bovine serum [FBS]) containing NRH or NR, and were incubated at 37° C. under 6% CO2 for 30 min or 6 hr. The cells were incubated with the following concentrations of NRH or NR: 0.01, 0.1, 1.0, 10, 100 and 1000 μM. NAD^+ and NADH levels at 30 min and 6 hr were estimated using the NAD/NADH-Glo Promega Bioluminescent assay. The results were expressed as fold change relative to the values obtained with untreated cells.

[5] = Stability in human serum in vitro (absorbance over time); format: in vitro ADME; settings: 100 μM, 37° C.
Method: Three blood samples were collected from healthy human donors with the same blood group in serum separator vacutainer gel tubes. The samples were centrifuged at 1,800 g to separate serum. The serum samples obtained were pooled together into a separate tube.
NR, NRH and NRH-triacetate (NRHTA) were initially dissolved in DMSO and then diluted with normal saline to obtain a 1 mM stock solution of each compound. 100 μL of stock solution was added to 900 μL of pooled serum to assess the stability of the test compound in human serum. 200 μL of saline with 1,800 μL of pooled serum was used to prepare a solution for blanking and as a reference measurement. The stock solutions were diluted in the pooled serum and normal saline to prepare 100 μM solutions of the test compounds.
In previous experiments, spectral scans between 190 nm and 1100 nm were performed to determine absorbance maxima for NR, NRH and NRHTA, which have maximal absorbance at 265 nm, 340 nm and 331 nm, respectively, in solution.
The stability of a test compound in human serum was determined by a change in the concentration of the compound as measured by a change in absorbance at the maximal absorbance wavelength for the compound as a function of time. The test compounds at 100 μM were incubated in human serum at 37° C. Absorbance measurements were made at 0 min (T0), 5 min, 30 min, 120 min, 240 min, 360 min and 1440 min (24 hr). The relative change in absorbance compared to T0 was plotted and used for statistical analysis. The analysis was performed in triplicates.

[6] = test system: CD8^+ T cells; test: Ex vivo polyclonal immune activation model: intracellular cytokine production in CD8+ T cells (flow cytometry); format: cell-based, human; settings: stimulated with anti-CD3 and anti-CD28 antibodies; data not shown
Method: (§1) Heparinized venous blood was collected from healthy human adult donors. Peripheral blood mononuclear cells (PBMCs) were isolated by Ficoll-Hypaque density-gradient centrifugation. PBMCs (1.0×10^6) were seeded in round-bottom, 96-well plates in 200 μL of medium, unstimulated or stimulated with an anti-CD3 antibody ([…], clone-HIT3a, Biolegend) plus an anti-CD28 antibody (1 μg/mL, clone-CD28.2, Biolegend) to induce T-cell activation, and incubated in cell-culture medium. The PBMCs were unstimulated or stimulated with anti-CD3 and anti-CD28 antibodies to induce T-cell activation, in the absence or presence of 250 μM NRH. After 18 hours of incubation, lymphocytes were analyzed for intracellular levels of IFN-γ, TNF-α and IL-2 by flow cytometry. Intracellular cytokine production was stopped by treating the cells with Golgi stop after 1 hr of treatment.

[7] = test system: CD4^+ T cells; test: Ex vivo polyclonal immune activation model: cytokine production in CD4+ T cells; format: cell-based, human; settings: stimulated with anti-CD3 and anti-CD28 antibodies; data not shown
Method: as §1

[8] = test system: CD4^+ T cells; test: Mitochondrial membrane depolarization (JC-1, flow cytometry) in CD4+ T cells; format: cell-based, human; settings: 250 μM, 24 hr, unstimulated or stimulated with anti-CD3 and anti-CD28 antibodies
Method: (§2) PBMCs (10^6 cells per test group) obtained from healthy human adult donors were unstimulated or stimulated with anti-CD3 and anti-CD28 antibodies to induce T-cell activation, in the absence or presence of 250 μM of NRH or NRH-triacetate (NRHTA). Measurements were made at 5, 15 and 24 hr after treatment.
(§3) After the indicated time of incubation, the PBMCs were stained with anti-CD3, anti-CD4 and anti-CD8 antibodies (Biolegend), JC-1 (1 μM, Thermo Fisher) and annexin V (Thermo Fisher) prior to analysis by flow cytometry. Annexin V binds to cell-surface phosphatidylserine, which is a marker for different forms of cell death including apoptosis and necrosis. The stained cells were re-suspended in phosphate-buffered saline (PBS) and acquired in a Cytek Aurora flow cytometer using a FlowJo software (v10) for analysis. About 200,000-300,000 cells were acquired in the flow cytometer for analysis. Standard procedures for spectral compensation were performed to obtain cell populations. Lymphocytes identified by forward and side scatter were gated to obtain CD3^+/CD4^+ and CD3^+/CD8^+ T-cell populations. Those T-cell populations were gated to identify the red and green signals for JC-1 aggregate and monomer, respectively, and annexin V. The percentage of cells staining green by JC-1 monomer was used to determine the percentage of cells with depolarized mitochondria. […]

[9] = test system: CD8^+ T cells; test: Mitochondrial membrane depolarization (JC-1, flow cytometry) in CD8+ T cells; format: cell-based, human; settings: 250 μM, 24 hr, unstimulated or stimulated with anti-CD3 and anti-CD28 antibodies
Method: as §2, §3

[10] = test system: CD4^+ T cells; test: Cell death including apoptosis (annexin V, flow cytometry) of CD4+ T cells with depolarized mitochondria; format: cell-based, human; settings: 250 μM, 24 hr, unstimulated or stimulated with anti-CD3 and anti-CD28 antibodies
Method: as §2, §3

[11] = test system: CD8^+ T cells; test: Cell death including apoptosis (annexin V, flow cytometry) of CD8+ T cells with depolarized mitochondria; format: cell-based, human; settings: 250 μM, 24 hr, unstimulated or stimulated with anti-CD3 and anti-CD28 antibodies
Method: as §2, §3

SMILES	extracellular acidification rate (ECAR, a measure of glycolysis) in activated PBMCs [1]	H2O2-induced hemolysis [2]	A576/A630 ratio (a measure of the hemoglobin/methemoglobin ratio) ([3]; RBCs exposed to 1 mM H2O2, 1 μM or 100 μM NRH, NR data not shown)	protection of hemoglobin from 1 mM H2O2-induced oxidative changes (amplitude of absorbance peaks at 576, 540, 434, 348 and 270 nm) ([3]; pre-incubation of RBCs with 1, 10 and 100 µM)	NADH/NAD+ ratio in HEK293 cells exposed to H2O2 ([4]; 30 min of incubation)	NADH/NAD+ ratio in HEK293 cells exposed to H2O2 ([4]; 6 hr of incubation)	compound remaining intact in human serum within 5 min ([5]; within 5 min of addition, absorbance at 265 nm)	production of pro-inflammatory cytokines (e.g., TNF-α, IL-2, IFN-γ) by CD8+ T cells [6]	production of pro-inflammatory cytokines (e.g., TNF-α, IL-2, IFN-γ) by CD4+ T cells [7]	mitochondrial membrane depolarization in CD4+ T cells [8]	mitochondrial membrane depolarization in CD8+ T cells [9]	cell death including apoptosis of CD4+ T cells with depolarized mitochondria [10]	cell death including apoptosis of CD8+ T cells with depolarized mitochondria [11]	compound remaining intact in human serum after 6 hr ([5]; 6 hr)	compound remaining intact in human serum after 24 hr ([5]; 24 hr)	stability in human serum compared with NR ([5]; up to 24 hr, p<0.05)
NC(=O)c1ccc[n+]([C@@H]2O[C@H](CO)[C@@H](O)[C@H]2O)c1 [NR, nicotinamide riboside, reference compound]	Unlike NR (data not shown), NRH reduced glycolysis	neither NR (MP-02) nor NR-triacetate (MP-39) at any concentration tested, reduced H2O2-induced hemolysis	did not significantly affect	not with NR (MP02), protected hemoglobin	did not significantly affect	did not significantly affect	most of NR did not remain intact									
CC(=O)OC[C@H]1O[C@@H]([n+]2cccc(C(N)=O)c2)[C@H](OC(C)=O)[C@@H]1OC(C)=O.O=S(=O)([O-])C(F)(F)F [NR-triacetate, 3-Carboxamide-N-(2,3,5-tri-O-acetyl-β-D-ribofuranosyl)pyridinium Triflate, reference compound]		neither NR (MP-02) nor NR-triacetate (MP-39) at any concentration tested, reduced H2O2-induced hemolysis														
CC(=O)OC[C@H]1O[C@@H](N2C=CCC(C(N)=O)=C2)[C@H](OC(C)=O)[C@@H]1OC(C)=O [NRH-triacetate, N-(2,3,5-tri-O-acetyl-β-D-ribofuranosyl)dihydronicotinamide]		reduced H2O2-induced hemolysis						reduced production of pro-inflammatory cytokines	reduced production of pro-inflammatory cytokines	significantly induced	significantly induced	reduced cell death	reduced cell death	Most of both NRH and NRH-triacetate remained intact	about 50%	much more stable
